From ChEMBL document CHEMBL5614443, “Hybrids of 3-Hydroxypyridin-4(1H)-ones and Long-Chain 4-Aminoquinolines as Potent Biofilm Inhibitors of Pseudomonas aeruginosa Potentiate Tobramycin and Polymyxin B Activity” (J Med Chem, 2024)
Activity calls are given as the source filed them. The calls are words filed in the database; no cut-off is given here.

Assays:
Pseudomonas aeruginosa [1] = test: Antibacterial activity against Pseudomonas aeruginosa PAO1 assessed as inhibition of bacterial growth incubated for 24 hrs by CLSI protocol based method; format: functional
Pseudomonas aeruginosa [2] = test: Antibiofilm activity against Pseudomonas aeruginosa PAO1 assessed as inhibition of biofilm formation incubated for 24 hrs by crystal violet staining based analysis; format: functional, organism-based; details: PAO1, 24 h
Pseudomonas aeruginosa [3] = test: Induction of Fe3+ chelating activity in Pseudomonas aeruginosa PAO1 assessed as increase in pyochelin production at 2.5 to 50 uM incubated for 24 hrs by fluorescence microplate reader; details: dose 2.5-50 µM
[4] = Hemolytic activity in rabbit erythrocytes assessed as hemolysis rate at 200 uM incubated for 2 hrs by microplate reader analysis (reference value: 100 %); format: toxicity, cell-based, Oryctolagus cuniculus, Erythrocyte; details: read-out: Activity
[5] = Inhibition of quorum sensing system in wildtype Pseudomonas aeruginosa PAO1 assessed as inhibition of pyocyanin production incubated for 24 hrs by absorbance based analysis
[6] = Inhibition of quorum sensing system in wildtype Pseudomonas aeruginosa PAO1 assessed as inhibition of elastase production incubated for 24 hrs by elastin-congo red dye based absorbance assay
Pseudomonas aeruginosa [7] = test: Induction of Fe3+ chelating activity in Pseudomonas aeruginosa PAO1 assessed as increase in pyoverdine production at 2.5 to 50 uM incubated for 24 hrs by fluorescence microplate reader; details: dose 2.5-50 µM
[8] = Inhibition of quorum sensing system in wildtype Pseudomonas aeruginosa PAO1 assessed as inhibition of rhamnolipid production incubated for 24 hrs by absorbance based microtiter plate reader analysis
[9] = Cytotoxicity against African green monkey Vero cells assessed as reduction in cell viability incubated for 24 hrs by MTT assay; format: toxicity, cell-based; details: chlorocebus sabaeus
[10] = Toxicity in Caenorhabditis elegans assessed as effect on survival at 100 uM measured at 48 hrs by bright-field microscopic analysis
[11] = Metal chelating activity assessed as Fe3+ chelation by measuring iron chelation constant by fluorescence competition assay
Pseudomonas aeruginosa [12] = test: Antibiofilm activity against Pseudomonas aeruginosa PAO1 assessed as decrease in biofilm formation incubated for 24 hrs by LIVE/DEAD BacLight staining based 3D confocal laser scanning microscopy; format: functional, organism-based; details: dose 1-10 µM
Pseudomonas aeruginosa [13] = test: Antibacterial activity against Pseudomonas aeruginosa PAO1 assessed as inhibition of bacterial growth at 0.1 to 50 uM measured upto 24 hrs by CLSI protocol based method; format: functional, organism-based; details: dose 0.1-50 µM
Pseudomonas aeruginosa [14] = test: Antibacterial activity against Pseudomonas aeruginosa PAO1 assessed as bacterial survival rate at 1/2 MIC incubated for 24 hrs by LB agar plate method relative to control; format: functional
Pseudomonas aeruginosa [15] = test: Antibacterial activity against Pseudomonas aeruginosa PAO1 infected in Caenorhabditis elegans assessed as reduction in worm mortality by measuring survival at 1/2 MIC by bright-field microscopic analysis (reference value: 24 hrs); format: functional

| Molecule | MIC (Pseudomonas aeruginosa [1]) | IC50 (Pseudomonas aeruginosa [2]) | other results |
| --- | --- | --- | --- |
| CCCCn1c(C)cc(=O)c(O)c1CNCCCCCCCCNc1ccnc2cc(Cl)ccc12 | ≥ 512 µM | 14.1 µM | – |
| CCn1c(C)cc(=O)c(O)c1CNCCCCCCCCNc1ccnc2ccccc12 | ≥ 512 µM | > 50 µM | – |
| O=c1cc(CNCCCCCCCCNc2ccnc3ccccc23)n(O)cc1O | ≥ 512 µM | > 50 µM | – |
| Cc1cc(=O)c(O)c(CNCCCCCCCCNc2ccnc3cc(Br)ccc23)n1C | ≥ 512 µM | > 50 µM | – |
| NCCCCCCCCNc1ccnc2cc(Cl)ccc12 | ≥ 512 µM | > 50 µM | Activity (Pseudomonas aeruginosa [3]): Active; hemolysis at 2 h, 200 µM [4]: < 1.5%; IC50 [5]: > 50 µM; IC50 [6]: 43.5 µM; Activity (Pseudomonas aeruginosa [7]): Active; IC50 [8]: > 50 µM; CC50 at 24 h [9]: 189 µM; Activity [10]: Toxic |
| CCCn1c(C)cc(=O)c(O)c1CNCCCCCCCCNc1ccnc2ccccc12 | ≥ 512 µM | > 50 µM | – |
| CCCCCCCc1[nH]c2ccccc2c(=O)c1O | – | – | Activity (Pseudomonas aeruginosa [7]): Active |
| Cc1cc(=O)c(O)cn1CCCCCCCCNc1ccnc2cc(Cl)ccc12 | ≥ 512 µM | 25.6 µM | – |
| Cc1cc(=O)c(O)c(CNCCCCCCCCNc2ccnc3cccc(Cl)c23)n1C | ≥ 512 µM | > 50 µM | – |
| COc1ccc2c(NCCCCCCCCNC(=O)c3c(O)c(=O)cc(C)n3C)ccnc2c1 | ≥ 512 µM | > 50 µM | – |
| Cc1cc(=O)c(O)c(CNCCCCCCCCNc2ccnc(Cl)c2)n1C | ≥ 512 µM | > 50 µM | – |
| CCCCn1c(C)cc(=O)c(O)c1CNCCCCCCCCNc1ccnc2ccccc12 | ≥ 512 µM | 8.9 µM | – |
| Cc1cc(=O)c(O)c(CNCCCCCCNc2ccnc3ccccc23)n1C | ≥ 512 µM | 16.2 µM | – |
| Cc1cc(=O)c(O)c(CNCCCCCCCCCCNc2ccnc3ccccc23)n1C | ≥ 512 µM | 32.6 µM | – |
| Cc1cc(=O)c(OCc2ccccc2)c(C(=O)NCCCCCCCCNc2ccnc3cc(Cl)ccc23)n1C | ≥ 512 µM | > 50 µM | Activity (Pseudomonas aeruginosa [3]): Active; Activity (Pseudomonas aeruginosa [7]): Active |
| COCCn1c(C)cc(=O)c(O)c1CNCCCCCCCCNc1ccnc2ccccc12 | ≥ 512 µM | > 50 µM | – |
| Cc1cc(=O)c(O)c(CNCCCCCCCNc2ccnc3ccccc23)n1C | ≥ 512 µM | 13.2 µM | – |
| Cc1cc(=O)c(O)cn1CCCCCCCCNc1ccnc2ccccc12 | ≥ 512 µM | > 50 µM | – |
| Cc1cc(=O)c(O)c(C(=O)NCCCCCCCCNc2ccnc3ccccc23)n1C | ≥ 512 µM | 13 µM | – |
| Cc1c(O)c(=O)ccn1C | – | – | pFe3+ [11]: 21.7 |
| Cc1cc(=O)c(O)c(CNCCCCCCCCNc2ccncc2)n1C | ≥ 512 µM | > 50 µM | – |
| Cn1cc(O)c(=O)cc1CNCCCCCCCCNc1ccnc2ccccc12 | ≥ 512 µM | > 50 µM | – |
| Cc1cc(=O)c(O)c(CNCCCCCCCCNc2ccnc3cc(Cl)ccc23)n1C | ≥ 512 µM | 5.4 µM | IC50 [5]: 23.7 µM; Activity (Pseudomonas aeruginosa [12]): Dose-Dependent Effect; IC50 [6]: 30.9 µM; IC50 [8]: > 50 µM; Activity (Pseudomonas aeruginosa [13]): inactive |

| Molecule | MIC (Pseudomonas aeruginosa [1]) | IC50 (Pseudomonas aeruginosa [2]) | other results |
| --- | --- | --- | --- |
| CCCCCn1c(C)cc(=O)c(O)c1CNCCCCCCCCNc1ccnc2ccccc12 | ≥ 512 µM | 23.6 µM | – |
| CCCCCn1c(C)cc(=O)c(O)c1CNCCCCCCCCNc1ccnc2cc(Cl)ccc12 | ≥ 512 µM | > 50 µM | – |
| COc1ccc2c(NCCCCCCCCNCc3cc(=O)c(O)cn3C)ccnc2c1 | ≥ 512 µM | > 50 µM | – |
| Cn1cc(O)c(=O)cc1CNCCCCCCCCNc1ccnc2cc(Cl)ccc12 | ≥ 512 µM | > 50 µM | – |
| Cc1cc(=O)c(O)c(CNCCCCCNc2ccnc3ccccc23)n1C | ≥ 512 µM | > 50 µM | – |
| Cc1cc(=O)c(O)c(CNCCCCCCCCCCNc2ccnc3cc(Cl)ccc23)n1C | ≥ 512 µM | > 50 µM | – |
| Cc1cc(=O)c(O)c(CNCCCCCCCCNc2ccnc3c(Cl)cccc23)n1C | ≥ 512 µM | > 50 µM | – |
| O=c1cc(CNCCCCCCCCNc2ccnc3cc(Cl)ccc23)n(O)cc1O | ≥ 512 µM | > 50 µM | – |
| Cc1cc(=O)c(O)c(CNCCCCCCCCNc2ccnc3ccccc23)n1C | ≥ 512 µM | 8.1 µM | – |
| NC[C@H]1O[C@H](O[C@H]2[C@H](O)[C@@H](O[C@H]3O[C@H](CO)[C@@H](O)[C@H](N)[C@H]3O)[C@H](N)C[C@@H]2N)[C@H](N)C[C@@H]1O [TOBRAMYCIN] | – | – | Survival (Pseudomonas aeruginosa [14]): ~20%; Survival (Pseudomonas aeruginosa [15]): 72 h |
| Cc1cc(=O)c(O)c(CNCCCNc2ccnc3ccccc23)n1C | ≥ 512 µM | > 50 µM | – |
| POLYMYXIN B | – | – | Survival (Pseudomonas aeruginosa [14]): 18%; Survival (Pseudomonas aeruginosa [15]): 88 h |
| Cc1cc(=O)c(OCc2ccccc2)c(CNCCCCCCCCNc2ccnc3cc(Cl)ccc23)[nH]1 | ≥ 512 µM | > 50 µM | – |
| Cc1cc(=O)c(O)c(CNCCCCCCCCNc2ccnc3ccc(Cl)cc23)n1C | ≥ 512 µM | 18.3 µM | – |
| Cc1cc(=O)c(O)c(CNCCNc2ccnc3ccccc23)n1C | ≥ 512 µM | > 50 µM | – |
| COc1ccc2c(NCCCCCCCCNCc3c(O)c(=O)cc(C)n3C)ccnc2c1 | ≥ 512 µM | 16 µM | – |
| Cc1cc(=O)c(O)c(CNCCCCNc2ccnc3ccccc23)n1C | ≥ 512 µM | > 50 µM | – |
| CC[C@H]1OC(=O)[C@H](C)[C@@H](O[C@H]2C[C@@](C)(OC)[C@@H](O)[C@H](C)O2)[C@H](C)[C@@H](O[C@@H]2O[C@H](C)C[C@H](N(C)C)[C@H]2O)[C@](C)(O)C[C@@H](C)CN(C)[C@H](C)[C@@H](O)[C@]1(C)O [AZITHROMYCIN] | – | 6.6 µM | – |
| Cc1cc(=O)c(O)c(CNCCCCCCCCNc2ccnc3cc(F)ccc23)n1C | ≥ 512 µM | > 50 µM | – |
| Cc1cc(=O)c(O)c(CNCCCCCCCNc2ccnc3cc(Cl)ccc23)n1C | ≥ 512 µM | 9.4 µM | – |
| Cc1cc(=O)c(O)c(CNCCCCCCNc2ccnc3cc(Cl)ccc23)n1C | ≥ 512 µM | 18.2 µM | – |
| Cc1cc(=O)c(O)c(CNCCCCCCCCNc2ccnc3cc(C(F)(F)F)ccc23)n1C | ≥ 512 µM | 12.9 µM | – |
